Data: patent US8003096B2, “Means and methods for the recruitment and identification of stem cells” (Vlaams Interuniversitair Instituut voor Biotechnologie VZW, priority 2003, dated 2011)

How the values were obtained:
[1] = system: BM cells; test: FACS analysis of BM cells after 5-FU; assay type: in vivo, mouse; settings: for Sca-1+ progenitors in S-phase of the cell cycle: 5-FU treatment; for CD3ε+ lymphoid cell counts / Gr1+CD11b+ myeloid cell counts: day 7 after 5-FU; for BM HSCs (Sca-1+cKit+ cells) / HPCs (Sca-1+ cells): seven days after 5-FU
Source text: Murine BM cells were filtered through a 40 μm nylon mesh (Falcon) and stained with labeled anti-mouse antibodies against CD11b, Gr-1, CD3ε, CD19, Sca-1, α5β1, (BD Biosciences), cKit (eBioscience). Anti-mouse α4β1, antibodies were generated from hybridoma (PS/2; ATCC), and detected using a secondary labeled anti-rat antibody (Caltag). Mouse annexin II was detected using a goat anti-annexin II antibody (Santa Cruz), and a secondary labeled rabbit anti-goat antibody (Caltag). Mouse uPAR was detected using a rabbit anti-mouse uPAR antibody (Sier et al. (2004), Thromb. Haemost. 91:403-11), and a secondary labeled goat anti-rabbit antibody (BD Biosciences). Control stainings included matched isotype antibodies and pre-immune antibodies. Non-specific binding was prevented by addition of mouse serum (DAKO), as alternative for Fc-receptor block. For cell cycle analysis, BM cells were stained with Sca-1-FITC and treated with PI/RNAse (BD Biosciences), as previously described (Heissig et al. (2002), Cell 109:625-37). From EDTA-anti-coagulated human blood, full blood counts were performed, MNCs were prepared using Lymphoprep (Axis-Shield), counted, and 1×10^6 PB MNCs were stained with anti-human CD34 (Tebu Bio).

[2] = system: sKitL; test: sKitL levels in BM plasma (ELISA); assay type: in vivo, mouse; settings: WT mice
Method: BM extracellular fluid (BM plasma) from mice was obtained as described previously (Petit et al. (2002), Nat. Immunol. 3:687-94). BM plasma from healthy volunteers was obtained by using the first 10 ml of collection via puncture in the iliac crest under local anesthesia, and immediate anti-coagulation with EDTA. Protein extraction on BM cells was performed as described (Heymans et al. (1999), Nat. Med. 5:1135-42). Murine sKitL and SDF1α protein levels were quantified using commercial available ELISA (R&D Systems, Abingdon, UK). Murine plasminogen, and murine and human suPAR were quantified by home-made ELISA (Heymans et al. (1999), Nat. Med. 5:1135-42; Sier et al. (2004), Thromb. Haemost. 91:403-11). Lyophilized pertussis toxin was obtained from List Laboratories. MMP-2, MMP-9, and MMP-12 activities were measured using gelatin-zymography, uPA and MMP-3 activities were measured using casein-zymography, as described previously (Heymans et al. (1999), Nat. Med. 5:1135-42). Samples from gene-deficient mice were used as negative controls. Plasmin activity of BM plasma or cells (pericellular activity) was measured using substrate colorimetry (S2403), as described previously (Heymans et al. (1999), Nat. Med. 5:1135-42). Fibrinolytic activity was measured using a modified fluorescent-based in vitro clot lysis assay (Heymans et al. (1999), Nat. Med. 5:1135-42). Western blotting was performed on non-reduced samples, which were neutralized with a cocktail of protease inhibitors (Complete Inhibitor, Roche). ECM components/fragments were detected with antibodies against mouse fibronectin and laminin (Sigma), and human D1D2D3 and D2D3 (Andolfo et al. (1999), Thromb. Haemost. 88:298-306), secondary HRP-labeled antibodies (DAKO), and ECL detection system (Amersham Pharmacia).

SMILES: O=c1[nH]cc(F)c(=O)[nH]1 [5-FU, 5-fluorouracil]
- Sca-1+ progenitors in S-phase of the cell cycle ([1]; Plg−/− mice): 1.2±0.6 ×10^4 per femur
- CD3ε+ lymphoid cell counts ([1]; Plg−/− mice): 67±31 ×104 per femur
- Gr1+CD11b+ myeloid cell counts ([1]; Plg−/− mice): 3±2 ×10^4 per femur
- BM HSCs (Sca-1+cKit+ cells) ([1]; Plg−/− mice): 5±1 ×10^4 per femur
- HPCs (Sca-1+ cells) ([1]; Plg−/− mice): 48±22 ×10^4 per femur
- Sca-1+ progenitors in S-phase of the cell cycle ([1]; WT mice): 8.4±0.8 ×10^4 per femur
- CD3ε+ lymphoid cell counts ([1]; WT mice): 438±122 ×104 per femur
- Gr1+CD11b+ myeloid cell counts ([1]; WT mice): 29±13 ×10^4 per femur
- BM HSCs (Sca-1+cKit+ cells) ([1]; WT mice): 42±9 ×10^4 per femur
- HPCs (Sca-1+ cells) ([1]; WT mice): 206±20 ×10^4 per femur
- elevation of sKitL levels in the BM plasma ([2]; seven days after treatment): 14 fold
- elevation of sKitL levels in the BM plasma ([2]; ten days after treatment): 2.5 fold
